# Patent publication US10952995B2, “Azaindoles as inhibitors of HPK1” (Genentech, Inc., priority 2017, dated 2021)
# Counter-ions that a name gives are not always drawn.
# Target: HPK1 (Homo sapiens (Human), UniProt Q92918)
# Assay: HPK Lantha Binding Assay (TR-FRET, Tracer-222 / Eu-Anti-GST Ab)
# Details: 2 nM HPK1, 2 nM Eu-Anti-GST Ab, 15 nM Tracer222, 60 min incubation; Morrison ki fit
# Description: Methods for Biological evaluation to assess compound inhibition of HPK-1:
# I. Compound Dilution: • 1. Prepare 12.5 uL/well of 5 mM of compounds (100×) to column 2 and column 13 & 10 ul/well DMSO in column 3-12, 14-23 and well A1-H1, I24-P24 of compound plate with Bravo. For reference compound, the top concentration is 1 mM • 2. Add 10 ul 2 mM staurosporine in well J1-P1 and A24-H24 • 3. Perform 11 point 5-fold compound serial dilution with Bravo • a. transfer 2.5 ul compounds from column 2 and column 13 to 10 ul of DMSO in column 3 and column 14 & so on • 4. Centrifuge the compound plate at 2500 rpm for 1 min • 5. Transfer 80 nl compounds into assay plate using Echo. One compound plate makes two assay plates • 6. Seal the assay plate and store in N2 cabinet.
# 2 nM HPK1, 2 nM Eu-Anti-GST Ab, 15 nM Tracer222, 60 min incubation
# III. HPK Lantha Binding Assay: • 1. Add 4 ul 2×HPK1 and Eu-anti-GST antibody into each well of assay plate using Multidrop • 2. Incubate at 23 C incubator for 1 h • 3. Add 4 ul 2× Tracer-222 into each well of assay plate using Multidrop • 4. Incubate at 23 C incubator for 1 h • 5. Read the assay plate in Envision • a. TR_FRET, 340 ex/615 and 665 em • b. 100 usec Delay, 200 usec integration
# IV. Analysis: • 1. Compound Ki was analyzed using Morrison ki fit model in XL-fit • a. fit=(1−((((E+x)+(Ki*(1[…](S/Kd))))−(((((E+x)+(Ki*(1+(S/Kd))))^2)−((4*E)*x))^0.5))/(2*E))) • res=(y-fit) • b. Parameters: • E=enzyme concentration • S=Tracer222 concentration, Kd=Tracer222 Kd • All in the same units (uM)
# HPK1, sequence (Q92918 1-346): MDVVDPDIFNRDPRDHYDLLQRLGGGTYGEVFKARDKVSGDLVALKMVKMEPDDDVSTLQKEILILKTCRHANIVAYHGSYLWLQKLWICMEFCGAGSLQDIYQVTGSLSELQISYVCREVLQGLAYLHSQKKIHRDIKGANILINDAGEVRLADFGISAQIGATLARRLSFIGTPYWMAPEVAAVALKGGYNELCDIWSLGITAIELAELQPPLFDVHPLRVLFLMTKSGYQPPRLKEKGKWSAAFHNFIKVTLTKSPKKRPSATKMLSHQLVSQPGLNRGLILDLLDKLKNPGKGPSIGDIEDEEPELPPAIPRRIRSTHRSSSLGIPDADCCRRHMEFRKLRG
row,Ki [nM],SMILES
1,2,"CCc1c(Cl)[nH]c2ncc(-c3cccc(N4CCOCC4=O)c3)cc12 [Compound 1-1, 4-(3-(2-chloro-3-ethyl-1H-pyrrolo[2,3]pyridin-5-yl)phenyl)morpholin-3-one]"
2,3,"CCc1c(Cl)[nH]c2ncc(-c3ccc(N)c(C(=O)N(C)C)n3)cc12 [Compound 1-2, 3-amino-6-(2-chloro-3-ethyl-1H-pyrrolo[2,3-b]pyridin-5-yl)-N,N-dimethylpicolinamide]"
3,15,"CCc1c(C)[nH]c2ncc(-c3ccc(N)c(C(=O)N(C)C)c3)cc12 [Compound 1-4, 2-amino-5-(3-ethyl-2-methyl-1H-pyrrolo[2,3-b]pyridin-5-yl)-N,N-dimethylbenzamide]"
4,2,"CCc1c(Cl)[nH]c2ncc(-c3cccc(N4CCOCC4=O)n3)cc12 [Compound 1-5, 4-(6-(2-chloro-3-ethyl-1H-pyrrolo[2,3-b]pyridin-5-yl)pyridin-2-yl)morpholin-3-one]"
5,15,"CCc1c(Cl)[nH]c2ncc(-c3ccc(N)c(C(=O)N4CC(O)C4)n3)cc12 [Compound 1-6, (3-amino-6-(2-chloro-3-ethyl-1H-pyrrolo[2,3-b]pyridin-5-yl)pyridin-2-yl)(3-hydroxyazetidin-1-yl)methanone formate]"
6,33,"CCc1c(Cl)[nH]c2ncc(-c3ccnc(N4CCOC4=O)n3)cc12 [Compound 1-7, 3-(4-(2-chloro-3-ethyl-1H-pyrrolo[2,3-b]pyridin-5-yl)pyrimidin-2-yl)oxazolidin-2-one formate]"
7,68,"Cc1[nH]c2ncc(-c3cccc(N4CCOCC4=O)n3)cc2c1C(F)(F)F [Compound 1-8, 4-(6-(2-methyl-3-(trifluoromethyl)-1H-pyrrolo[2,3-b]pyridin-5-yl)pyridin-2-yl)morpholin-3-one]"
8,76,"Cc1[nH]c2ncc(-c3ccc(N)c(C(=O)N(C)C)n3)cc2c1C(F)(F)F [Compound 1-9, 3-amino-N,N-dimethyl-6-(2-methyl-3-(trifluoromethyl)-1H-pyrrolo[2,3-b]pyridin-5-yl)picolinamide]"
9,32,"Cc1[nH]c2ncc(-c3ccc(N)c(C(=O)N(C)C)c3)cc2c1C(F)(F)F [Compound 1-10, 2-amino-N,N-dimethyl-5-(2-methyl-3-(trifluoromethyl)-1H-pyrrolo[2,3-b]pyridin-5-yl)benzamide]"
10,13,"Cc1[nH]c2ncc(-c3ccc(N)c(N4CCOCC4=O)n3)cc2c1C(F)(F)F [Compound 1-11, 4-(3-amino-6-(2-methyl-3-(trifluoromethyl)-1H-pyrrolo[2,3-b]pyridin-5-yl)pyridin-2-yl)morpholin-3-one]"
11,24,"Cc1[nH]c2ncc(-c3cc(N)cc(-c4ncccc4CO)c3)cc2c1C(F)(F)F [Compound 1-12, (2-(3-amino-5-(2-methyl-3-(trifluoromethyl)-1H-pyrrolo[2,3-b]pyridin-5-yl)phenyl)pyridin-3-yl)methanol]"
12,1700,"O=C1COCCN1c1cccc(-c2cnc3[nH]c(CO)c(C(F)(F)F)c3c2)c1 [Compound 1-13, 4-(3-(2-(hydroxymethyl)-3-(trifluoromethyl)-1H-pyrrolo[2,3-b]pyridin-5-yl)phenyl)morpholin-3-one]"
13,17,"O=C1COCCN1c1cccc(-c2cnc3[nH]c(Cl)c(CCF)c3c2)c1 [Compound 1-14, 4-(3-(2-chloro-3-(2-fluoroethyl)-1H-pyrrolo[2,3-b]pyridin-5-yl)phenyl) morpholin-3-one]"
14,75,"Cc1[nH]c2ncc(-c3cccc(N4CCOCC4CO)n3)cc2c1C(F)(F)F (stereo not drawn) [Compound 1-15, (4-(6-(2-methyl-3-(trifluoromethyl)-1H-pyrrolo[2,3-b]pyridin-5-yl)pyridin-2-yl)morpholin-3-yl)methanol]"
15,82,"Cc1[nH]c2ncc(-c3cccc(N4CCCNC4=O)n3)cc2c1C(F)(F)F [Compound 1-16, 1-(6-(2-methyl-3-(trifluoromethyl)-1H-pyrrolo[2,3-b]pyridin-5-yl)pyridin-2-yl)tetrahydropyrimidin-2(1H)-one]"
16,1300,"Cc1cc2cc(-c3ccc(N)c(C(=O)N(C)C)c3)cnc2[nH]1 [Compound 1-17, 2-amino-N,N-dimethyl-5-(2-methyl-1H-pyrrolo[2,3-b]pyridin-5-yl)benzamide]"
17,4,"CCc1c(F)[nH]c2ncc(-c3cccc(N4CCOCC4=O)c3)cc12 [Compound 1-18, 4-[3-(3-Ethyl-2-fluoro-1H-pyrrolo[2,3-b]pyridin-5-yl)phenyl]morpholin-3-one]"
18,1,"CCc1c(F)[nH]c2ncc(-c3ccc(N)c(C(=O)N(C)C)c3F)cc12 [Compound 1-19, 6-Amino-3-(3-ethyl-2-fluoro-1H-pyrrolo[2,3-b]pyridin-5-yl)-2-fluoro-N,N-dimethylbenzamide]"
19,17,"CN(C)C(=O)c1c(N)ccc(-c2cnc3[nH]c(Cl)c(CCO)c3c2)c1F [Compound 1-20, 6-Amino-3-[2-chloro-3-(2-hydroxyethyl)-1H-pyrrolo[2,3-b]pyridin-5-yl]-2-fluoro-N,N-dimethylbenzamide]"
20,89,"O=C1COCCN1c1cccc(-c2cnc3[nH]c(Cl)c(CCO)c3c2)c1 [Compound 1-21, 4-{3-[2-Chloro-3-(2-hydroxyethyl)-1H-pyrrolo[2,3-b]pyridin-5-yl]phenyl}morpholin-3-one]"
21,9.4,"CN(C)C(=O)c1cc(-c2cnc3[nH]c(Cl)c(CCO)c3c2Cl)ccc1N [Compound 1-22, 2-amino-5-(2,4-dichloro-3-(2-hydroxyethyl)-1H-pyrrolo[2,3-b]pyridin-5-yl)-N,N-dimethylbenzamide]"
22,160,"COCc1c(Cl)[nH]c2ncc(-c3ccc(N)c(C(=O)N(C)C)c3F)cc12 [Compound 1-23, 6-amino-3-(2-chloro-3-(methoxymethyl)-1H-pyrrolo[2,3-b]pyridin-5-yl)-2-fluoro-N,N-dimethylbenzamide]"
23,32,"CCc1c(Cl)[nH]c2ncc(-c3ccc(C4NCCNC4=O)cc3)cc12 (stereo not drawn) [Compound 1-24, 3-(4-(2-chloro-3-ethyl-1H-pyrrolo[2,3-b]pyridin-5-yl)phenyl)piperazin-2-one]"
24,31,"CCc1c(Cl)[nH]c2ncc(-c3cccc(C4NCCNC4=O)c3)cc12 (stereo not drawn) [Compound 1-25, 3-(3-(2-chloro-3-ethyl-1H-pyrrolo[2,3-b]pyridin-5-yl)phenyl)piperazin-2-one]"
25,12,"CN(C)C(=O)c1c(N)ccc(-c2cnc3[nH]c(Cl)c(CCO)c3c2Cl)c1F [Compound 1-26, 6-amino-3-(2,4-dichloro-3-(2-hydroxyethyl)-1H-pyrrolo[2,3-b]pyridin-5-yl)-2-fluoro-N,N-dimethylbenzamide]"
26,2.7,"CCc1c(Cl)[nH]c2ncc(-c3ccc(N)c(C(=O)N(C)C)c3F)cc12 [Compound 1-27, 6-amino-3-(2-chloro-3-ethyl-1H-pyrrolo[2,3-b]pyridin-5-yl)-2-fluoro-N,N-dimethylbenzamide]"

row,SMILES,Ki [nM]
1,"CCc1c(Cl)[nH]c2ncc(-c3ccc(N)c(C(=O)N(C)C)c3)cc12 [Compound 1-3, 2-amino-5-(2-chloro-3-ethyl-1H-pyrrolo[2,3-b]pyridin-5-yl)-N,N-dimethylbenzamide]",0.9
